# Experimental data published in patent US20190119635A1, “MODULATION OF T LYMPHOCYTES” (Fate Therapeutics, Inc., priority 2015, published 2019).
# Tested on: CD3+ T-cells pre-isolated from human peripheral blood
# Test: Gene expression panel of CD3+ T-cells treated with dmPGE2 (Affymetrix U133 plus 2.0 GeneChip)
# Format: cell-based
# Conditions: 10 μM dmPGE2, 2 hours at 37° C.; genes ATF3, CREM, GEM, CXCL2, MMP9, PLAUR, AREG, BCL2A1, DUSP4, FOS, FOSL2, JUN, MYC, NR4A2, NR4A3, SOCS1, SOCS3, ULBP2; mean of 3 donors; FIG. 1
# Description: RNA was extracted from CD3+ T-cells pre-isolated from human peripheral blood (AllCells, Aiameda CA) (n=3 donors) post ex vivo treatment (2 hours at 37° C. in StemSpan-ACF (StemCell Technologies, Vancouver, Canada)) with 10 μM dmPGE2 (Fate therapeutics, San Diego, Calif.) or vehicle control (DMSO).
# Following cell treatments, levels mRNA were quantitated from PicoPure isolated mRNA (Life Technologies, Carlsbad, Calif.) using Affymetrix GeneChip technology. Affymetrix U133 plus 2.0 GeneChip hybridization of all samples was performed in accordance with the manufacturer's recommendations (Affymetrix, Santa Clara, Calif.), involving roughly 200 ng of total RNA and Message Amp II (Life Technologies, Carlsbad, Calif.) standard two round amplification protocols. Probe intensities were normalized according to a log scale robust multi-array analysis (RMA) method (Affymetrix Santa Clara, Calif.). A parametric paired t-test (Benjamini-Hochberg false discovery rate <0.05, adjusted p-value/q-value <0.05, and fold change > or <2 fold) detected probes with significant changes due to the treatment with dmPGE2 and dexamethasone.
# The probe intensities were converted into linear fold changes of relative expression levels of mRNA by comparison of dmPGE2 and dexamethasone treated CD3+ T-cells in comparison to the vehicle treated control samples. […]
compound,measurement,value
"CCCCC(C)(C)[C@H](O)/C=C/[C@H]1[C@H](O)CC(=O)[C@@H]1C/C=C\CCCC(=O)O [dmPGE2, 16,16-dimethyl PGE2]",statistically significant increase in expression (linear fold change of mRNA vs vehicle control),at least 2 fold
